Reference: patent US5643873A, “Peptides and compounds that bind selectins including endothelial leukocyte adhesion molecule 1” (Affymax Technologies N.V., priority 1994, dated 1997)
“And” between values parts separate entries of the source, which are not always exact repeats. Identical values can stand only once. Square brackets hold non-standard residues; d marks the D form. Ends that are not written are not given here. Peptide text beside a SMILES is read from it. Nle = CCCC[C@H](N)C(=O)O

What follows are compounds tested against T1, E-selectin (Homo sapiens, UniProt P16581) (assay: IC50-standard competitive binding assay (radiolabeled standard peptide on immobilized E-selectin)). Conditions: inhibits 50% of binding of radiolabeled standard […] to E-selectin.
T1 sequence (P16581 22-554): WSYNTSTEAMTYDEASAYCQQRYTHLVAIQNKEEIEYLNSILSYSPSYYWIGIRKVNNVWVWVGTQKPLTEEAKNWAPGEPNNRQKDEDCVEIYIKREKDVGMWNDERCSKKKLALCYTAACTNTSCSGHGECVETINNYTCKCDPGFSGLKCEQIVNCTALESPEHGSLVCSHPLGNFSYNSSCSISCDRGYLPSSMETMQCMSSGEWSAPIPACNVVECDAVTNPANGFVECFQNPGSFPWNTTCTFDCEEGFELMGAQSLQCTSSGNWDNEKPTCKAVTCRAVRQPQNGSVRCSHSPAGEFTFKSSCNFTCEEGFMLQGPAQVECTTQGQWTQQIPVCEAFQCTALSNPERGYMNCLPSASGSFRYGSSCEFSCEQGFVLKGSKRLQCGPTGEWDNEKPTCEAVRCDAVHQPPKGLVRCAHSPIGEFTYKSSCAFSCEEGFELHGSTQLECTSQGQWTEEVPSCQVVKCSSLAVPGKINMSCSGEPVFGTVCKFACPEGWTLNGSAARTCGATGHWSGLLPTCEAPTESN
Set-up: truncated form comprising the complete extracellular domain (amino acids 1 through 554); made in house; a baculovirus soluble form is also mentioned as an option
Excerpt: This latter peptide has strong binding affinity to E-selectin and, accordingly, was used as a standard in a competitive binding assay with candidate peptides and peptide mimetics in order to determine relative binding affinities for E-selectin.
This example measures the concentration of peptide or peptide mimetic required to inhibit 50% of the binding of a radiolabeled standard to E-selectin and the resulting IC50 value is referred to as the "IC50 -standard". In this example, the standard corresponds to the synthetic peptide […] (SEQ ID NO 114) which comprises a known initial seven amino acid group which is a substrate for protein kinase A followed by a 2 amino acid spacer and a 12 amino acid sequence which corresponds to the peptide identified by SEQ ID NO 3 which has an IC50 -HL60 of 10 μM. The peptide is radiolabeled by phosphorylation using either […] or ^33 P phosphate by conventional methods via the protein kinase A. The example is a competitive assay in which 6.5 picograms at 1400 Ci/mmol (65000 cpm) of radiolabelled standard (1400 Ci/mmol) is combined with a titered amount of candidate peptide or peptide mimetic in a constant volume of 30 μL. The combined solution is then added to E-selectin immobilized onto a solid surface in the manner described above. The resulting mixture is then incubated for about 120 minutes to permit equilibrium binding to be achieved. Afterwards, unbound materials are separated from bound materials by conventional methods (e.g., washing) and the amount of the […] bound to E-selectin is determined by scintillation counting. The assay is repeated over several concentrations of candidate peptide or peptide mimetic and the results are entered into a graph whose y axis is the amount of radiolabeled standard bound to E-selectin (measured in cpm) and the x axis is the amount of candidate peptide or peptide mimetic. The results are graphically extrapolated to determine the concentration at which the peptide or peptide mimetic will reduce by 50% the amount of radiolabeled standard bound to E-selectin. This concentration is taken as the IC50 -standard for that peptide or peptide mimetic.

Row | IC50 | Compound
1 | 0.006 µM | DYTWFELWDMMQ
2 | 0.042 µM | CCCC[C@H](NC(=O)[C@H](CC(C)C)NC(=O)[C@H](CC(=O)O)NC(=O)[C@H](Cc1c[nH]c2ccccc12)NC(=O)[C@H](CC(C)C)NC(=O)[C@H](CCC(N)=O)NC(=O)[C@H](CC(=O)O)NC(=O)[C@H](Cc1c[nH]c2ccccc12)NC(=O)[C@@H](NC(=O)[C@@H](NC(=O)[C@H](CC(=O)O)NC(=O)CNC(=O)[C@@H](N)CC(=O)O)[C@@H](C)CC)[C@@H](C)O)C(=O)N[C@@H](CCCCN)C(=O)O (H-DGDITWDQLWDL[Nle]K-OH)
3 | 0.016 µM | DYSWHDLWEMMS
4 | 1 µM | CC[C@H](C)[C@H](NC(=O)[C@@H](N)CC(=O)O)C(=O)N[C@H](C(=O)N[C@@H](Cc1c[nH]c2ccccc12)C(=O)N[C@@H](CC(=O)O)C(=O)N[C@@H](CCC(N)=O)C(=O)N[C@@H](CC(C)C)C(=O)N[C@@H](Cc1c[nH]c2ccccc12)C(=O)N[C@@H](CC(=O)O)C(=O)N[C@@H](CC(C)C)C(=O)N[C@@H](CCSC)C(=O)N[C@H](CCCCN)C(=O)O)[C@@H](C)O (H-DITWDQLWDLM[dK]-OH)
5 | 0.065 µM | AEKWDQLWHVMNPAESQ
6 | 0.025 µM | CC[C@H](C)[C@H](NC(=O)[C@H](N)CC(=O)O)C(=O)N[C@H](C(=O)N[C@@H](Cc1c[nH]c2ccccc12)C(=O)N[C@@H](CC(=O)O)C(=O)N[C@@H](CCC(N)=O)C(=O)N[C@@H](CC(C)C)C(=O)N[C@@H](Cc1c[nH]c2ccccc12)C(=O)N[C@@H](CC(=O)O)C(=O)N[C@@H](CC(C)C)C(=O)N[C@@H](CCSC)C(=O)N[C@@H](CCCCN)C(=O)O)[C@@H](C)O (H-[dD]ITWDQLWDLMK-OH)
7 | 0.028 µM | HITWDQLWRIMT
8 | 0.022 µM | DITWDQLWDLMK-NH2

Further lines, the compound ahead of its results:

Row | Compound | IC50
9 | CC[C@H](C)[C@H](NC(=O)[C@@H](N)CC(=O)O)C(=O)N[C@@H](C(=O)N[C@@H](Cc1c[nH]c2ccccc12)C(=O)N[C@@H](CC(=O)O)C(=O)N[C@@H](CCC(N)=O)C(=O)N[C@@H](CC(C)C)C(=O)N[C@@H](Cc1c[nH]c2ccccc12)C(=O)N[C@@H](CC(=O)O)C(=O)N[C@@H](CC(C)C)C(=O)N[C@@H](CCSC)C(=O)N[C@@H](CCCCN)C(=O)O)[C@H](C)O (H-DI[dT]WDQLWDLMK-OH) | 2.7 µM
10 | CCCC[C@H](NC(=O)[C@H](CCCC)NC(=O)[C@H](CC(N)=O)NC(=O)[C@H](Cc1c[nH]c2ccccc12)NC(=O)[C@H](CC(C)C)NC(=O)[C@H](CCC(N)=O)NC(=O)[C@H](C)NC(=O)[C@H](Cc1c[nH]c2ccccc12)NC(=O)[C@@H](NC(=O)[C@@H](NC(=O)[C@@H](N)CC(=O)O)[C@@H](C)CC)[C@@H](C)O)C(=O)N[C@@H](CC(N)=O)C(=O)O (H-DITWAQLWN[Nle][Nle]N-OH) | 0.425 µM
11 | CC[C@H](C)[C@H](NC(=O)[C@@H](N)CC(=O)O)C(=O)N[C@H](C(=O)N[C@@H](Cc1c[nH]c2ccccc12)C(=O)N[C@@H](CC(=O)O)C(=O)N[C@@H](CCC(N)=O)C(=O)N[C@@H](CC(C)C)C(=O)N[C@@H](Cc1c[nH]c2ccccc12)C(=O)N[C@@H](CC(=O)O)C(=O)N[C@H](CC(C)C)C(=O)N[C@@H](CCSC)C(=O)N[C@@H](CCCCN)C(=O)O)[C@@H](C)O (H-DITWDQLWD[dL]MK-OH) | 33 µM
12 | CC[C@H](C)[C@H](NC(=O)[C@@H](N)CC(=O)O)C(=O)N[C@H](C(=O)N[C@@H](Cc1c[nH]c2ccccc12)C(=O)N[C@H](CC(=O)O)C(=O)N[C@@H](CCC(N)=O)C(=O)N[C@@H](CC(C)C)C(=O)N[C@@H](Cc1c[nH]c2ccccc12)C(=O)N[C@@H](CC(=O)O)C(=O)N[C@@H](CC(C)C)C(=O)N[C@@H](CCSC)C(=O)N[C@@H](CCCCN)C(=O)O)[C@@H](C)O (H-DITW[dD]QLWDLMK-OH) | 0.034 µM
13 | QITWAQLWNMMK | 0.012 µM
14 | DITWDQLWDLMK | 0.003 µM
15 | CCCC[C@H](NC(=O)[C@H](CC(C)C)NC(=O)[C@H](CC(=O)O)NC(=O)[C@H](Cc1c[nH]c2ccccc12)NC(=O)[C@H](CC(C)C)NC(=O)[C@H](CCC(N)=O)NC(=O)[C@H](CC(=O)O)NC(=O)[C@H](Cc1c[nH]c2ccccc12)NC(=O)[C@@H](NC(=O)[C@@H](NC(=O)[C@@H](N)CCC(N)=O)[C@@H](C)CC)[C@@H](C)O)C(=O)N[C@@H](CCCCN)C(=O)O (H-QITWDQLWDL[Nle]K-OH) | 0.065 µM
16 | CC[C@@H](C)[C@@H](NC(=O)[C@@H](N)CC(=O)O)C(=O)N[C@H](C(=O)N[C@@H](Cc1c[nH]c2ccccc12)C(=O)N[C@@H](CC(=O)O)C(=O)N[C@@H](CCC(N)=O)C(=O)N[C@@H](CC(C)C)C(=O)N[C@@H](Cc1c[nH]c2ccccc12)C(=O)N[C@@H](CC(=O)O)C(=O)N[C@@H](CC(C)C)C(=O)N[C@@H](CCSC)C(=O)N[C@@H](CCCCN)C(=O)O)[C@@H](C)O (H-D[dI]TWDQLWDLMK-OH) | 0.027 µM
17 | CCCC[C@H](NC(=O)[C@H](CC(C)C)NC(=O)[C@H](CC(=O)O)NC(=O)[C@H](Cc1c[nH]c2ccccc12)NC(=O)[C@H](CC(C)C)NC(=O)[C@H](CCC(N)=O)NC(=O)[C@H](CC(=O)O)NC(=O)[C@H](Cc1c[nH]c2ccccc12)NC(=O)[C@@H](NC(=O)[C@@H](NC(=O)[C@@H](N)CC(=O)O)[C@@H](C)CC)[C@@H](C)O)C(=O)N[C@@H](CCCCN)C(=O)O (H-DITWDQLWDL[Nle]K-OH) | 0.023 µM
18 | DITWDELWKIMN | 0.007 µM
19 | DGDITWDQLWDLMK | 0.004 µM
20 | RNMSWLELWEHMK | 0.035 µM

Same assay, conditions: inhibits 50% of binding of radiolabeled standard to E-selectin

Row | Compound | IC50
21 | ITWDQLWDLMK | 0.011 µM
22 | TWDQLWDLMK | 12 µM

The compounds below were run against T1, E-selectin (assay: HL60 cell adhesion assay (labeled HL60 cells adhering to immobilized E-selectin)). Conditions: concentration reducing by 50% the binding of HL60 cells to immobilized E-selectin.
Format: cell-based
Set-up: truncated form comprising the complete extracellular domain (amino acids 1 through 554); made in house
Procedure: By comparing test wells with control wells (no receptor), one can determine whether a peptide binds to E-selectin specifically. […] In this regard, HL60 cells are known to contain surface glycoconjugates which bind to E-selectin.
Peptides that block the binding of labeled HL60 cells to E-selectin are then evaluated to determine their IC50 -HL60 in the manner also specified in Example 1.
The assay requires HL60 cells labeled with tritiated thymidine. To label the cells, about 10 million HL60 cells are collected by centrifugation (2500 RPM for 3 minutes) and resuspended in 15 mL of DMEM/F12 plus 5% fetal calf serum containing 2 μCi/mL of tritiated thymidine (Amersham). The cells are then placed in a T75 flask and incubated at 37° C. for 24 hours. The cells are then collected by centrifugation, washed twice with RPMI/HEPES/0.1% FCS, and resuspended in the same solution at a concentration of about one to two million cells per mL. About 100 μL of this cell preparation are used per well of a 96-well microtiter dish in the assay.
The wells of the microtiter dish were first coated with the anti-receptor immobilizing antibody, an anti-HPAP-tail antibody, using about 2.5 μg of antibody per well. […]
After the test compound incubation period, 100 μL of labeled HL60 cells were added to each well, and the microtiter plate was incubated at 4° C. for 30 minutes. […] After this incubation, aliquots were removed from each well and placed in scintillation vials; scintillation fluid was added to each vial; and the radioactivity in each aliquot was quantitated by liquid scintillation counting. […]
The concentration of any peptide or peptide mimetic required to reduce by 50% the binding of HL60 cells to E-selectin as per the assay of Example 1 is determined by the following procedure. […] (SEQ ID NO 23), was determined. […]

Row | Compound | IC50
23 | HITWDQLWNVMN | 50 µM and 100 µM and ~50 µM
24 | DITWDQLWDLMK | < 10 µM and 10 µM

Same assay, conditions: peptide at 200 μM, FIG. 1

Row | Compound | blocking of HL60 cell binding that occurred in the absence of added compound
25 | HITWDQLWNVMN | over 80%
